Measurements taken from patent US10570179B2, “Substituted urea depsipeptide analogs as activators of the CLPP endopeptidase” (priority 2016, dated 2020).
≈ marks a conversion by molar mass, not a printed value. Numbered stars: 1 amine (or outer) side, 2 acyl side, 3 side chain; on linkers, the order of the positions; unused ones are H or OH. Bridge positions count the residues as written; N and C are the ends. Square brackets hold non-standard residues; d marks the D form. Peptide text beside a SMILES is read from it. * marks the point of attachment. Phe(3-Me) = Cc1cccc(C[C@H](N)C(=O)O)c1; Pro(4R-Me) = C[C@H]1CN[C@H](C(=O)O)C1; Hyp = O=C(O)[C@@H]1C[C@@H](O)CN1; NH(4-F-phenyl) = Fc1ccc(N*)cc1; aThr = C[C@H](O)[C@H](N)C(=O)O; NH(2-F-phenyl) = Fc1ccccc1N*; Pip = O=C(O)[C@@H]1CCCCN1; X7 = Clc1ccc(N*)c(Cl)c1; CO = O=C([*:1])[*:2]

Columns and labels:
S. aureus ΔClpP = experiment: Minimal inhibitory concentration, microbroth dilution; assay type: cell-based, Staphylococcus aureus; details: MIC; ClpP inactivated
Experimental: (§1) Minimal inhibitory concentrations (“MICs”) were determined using the microbroth dilution method according to Clinical Laboratory Standards Institute (CLSI; National, C.F. C. L. S., Methods for Dilution Antimicrobial Susceptibility Tests for Bacteria Grow aerobically-Seventh Edition: Approved Standard M7-A7, CLSI, Wayne, Pa., USA, 2008) and were read by visual inspection. Two fold serial dilutions of test compound in 100 μL of the appropriate broth media were first prepared in 96-well round bottom microtiter plates (Nalgene Nunc International, Rochester, N.Y., USA). An equivalent volume (100 μL) of bacterial broth inocula containing approximately 10^5 bacterial cfu/mL was added to each well to give final concentrations of test compound starting at 200 μM. The plates were then incubated aerobically at 37° C. All strains were incubated overnight. After incubations, in all cases the MIC was recorded as the lowest concentration of drug that prevented bacterial growth. The bacterial strains for which MIC was determined as described in Table 4.

S. aureus USA 300 = experiment: as above; assay type: cell-based; details: Staphylococcus aureus, USA300, read-out: Minimal Inhibitory Concentrations (μM) S. aureus USA 300, MIC
Experimental: as §1

E. faecails = experiment: as above; assay type: cell-based; details: Enterococcus faecalis, read-out: Minimal Inhibitory Concentrations (μM) E. faecails, MIC
Experimental: as §1

S. aureus ATCC 29213 = experiment: as above; assay type: cell-based; details: Staphylococcus aureus, ATCC29213, read-out: Minimal Inhibitory Concentrations (μM) S. aureus ATCC 29213, MIC
Experimental: as §1

MRSA NRS70 = experiment: as above; assay type: cell-based; details: Staphylococcus aureus, read-out: Minimal Inhibitory Concentrations (μM) MRSA NRS70, MIC
Experimental: as §1

S. aureus ClpP (Sa-ClpP) = biological target: T1, S. aureus ClpP (Sa-ClpP) (Staphylococcus aureus, UniProt Q2G036); experiment: Casein-BODIPY digestion assay (ClpP activation); assay type: biochemical
T1 construct: made in house; host or cells: E. coli BL21 (DE3)
T1 sequence (Q2G036 whole entry): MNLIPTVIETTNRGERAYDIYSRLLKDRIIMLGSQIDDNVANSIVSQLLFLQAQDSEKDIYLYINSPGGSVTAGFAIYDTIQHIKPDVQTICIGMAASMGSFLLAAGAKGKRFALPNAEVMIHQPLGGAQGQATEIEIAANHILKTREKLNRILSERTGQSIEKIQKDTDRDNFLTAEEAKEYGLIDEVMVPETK
Experimental: The compounds were assayed in a casein digestion assay in order to determine their effect on ClpP activation. Briefly, the assay was carried out using S. aureus ClpP (“Sa-ClpP”) overexpressed in E. coli BL21 (DE3) and purified in a two-step process. Purity of the protein was assessed through SDS PAGE analysis. EC50 evaluations were conducted in triplicate in a 20 μl assay format using a method adapted from Maurizi et al. (Methods Enzymol. (1994) 244:314-331). Each well contained 10 μM saClpP, 25 μg/ml BODIPY FL casein (Invitrogen Corporation, San Diego, Calif.), and test compound in concentrations ranging between 0-1000 μM in assay buffer (50 mM Tris pH 8, 200 mM KCl, and 1 mM TCEP). The reaction took place at 37° C. Fluorescence (excitation 485 nm; emission 528 nm) was measured in five minute intervals over a 45 min period using a BioTek HT fluorescence microplate reader (BioTek Instruments, Inc., Winooski, Vt.). Velocity of each reaction was calculated and data was fit to a dose response curve using GraphPad Prism® software (GraphPad Software, Inc., La Jolla, Calif.). EC50 is the effective concentration of compound which causes 50% activation of S. aureus ClpP in the foregoing BODIPY FL casein assay.
Alternatively, the assay was carried out using EnzCheck Protease Assay (Molecular Probes, Catalog # E6638). The assay was performed in black 384 well, flat bottom, low volume plates (Greiner Bio-One, Monroe, N.C., catalog #784076). 10 μL of Tris.HCl buffer, pH 8.0 with 0.01% Triton X-100 was pipetted into each well using a Well-Mate (Thermo Scientific, Waltham, Mass.). 0.4 μL test compounds or controls (2% DMSO v/v) were added to each well using a Biomek FX liquid handling robot (Beckman Coulter, Indianapolis, Ind.). After addition of test compounds and controls, 10 μL of master mix containing 2 μM Sa-ClpP and 2 μM substrate (Bodipy-FL labeled casein) in Tris.HCl buffer, pH 8.0 with 0.01% (v/v) Triton X-100, was pipetted into each well. All assays were performed in triplicate, under linear velocity conditions. Increase in fluorescent signal following activation of Sa-ClpP by test compounds and controls was measured over time period of 30 mins using filters with excitation at 485±15 nm and emission at 520±25 nm on a PHERAstar FS Multilabel reader (BMG, Cary, N.C.). Instrument gains and enzyme linear velocity conditions were determined and validated using ADEP4, a known Sa-ClpP activator. Data analysis was done by measuring rate of casein degradation over time (slopes). Computed degradation rates (slopes) were normalized to positive (ADEP4) or negative (DMSO) controls. Using nonlinear regression curve fitting EC50 values and % activation were determined using the equation “log [agonist] vs. Response-variable slope (four parameters)-symmetrical” in the program Prism 6 (GraphPad Software, La Jolla, Calif. USA, www.graphpad.com).

Cc1cccc(C[C@H](NC(=O)Nc2cccc(Cl)c2)C(=O)N[C@H]2COC(=O)[C@@H]3C[C@@H](C)CN3C(=O)[C@H](C)NC(=O)[C@@H]3CCCCN3C(=O)[C@@H]3CCCN3C2=O)c1 [Compound 72, (S)-2-(3-(3-CHLOROPHENYL)UREIDO)-N-((2R,6S,8AS,14AS,20S,23AS)-2,6-DIMETHYL-5,8,14,19,23-PENTAOXOOCTADECAHYDRO-1H,5H,14H,19H-PYRIDO[2,1-I]DIPYRROLO[2,1-C:2′,1′-L][1]OXA[4,7,10,13]TETRAAZACYCLOHEXADECIN-20-YL)-3-(M-TOLYL)PROPANAMIDE]
Minimal Inhibitory Concentrations (μM) S. aureus ΔClpP (S. aureus ΔClpP): >20 µM | MIC (S. aureus USA 300): 2.5 µM (≈ 1.98 µg/mL) | MIC (E. faecails): 10 µM (≈ 7.92 µg/mL) | MIC (S. aureus ATCC 29213): 2.5 µM (≈ 1.98 µg/mL) | MIC (MRSA NRS70): 2.5 µM (≈ 1.98 µg/mL)

Cc1cccc(C[C@H](NC(=O)Nc2ccc(Cl)cc2Cl)C(=O)N[C@@H]2C(=O)N3C[C@H](O)C[C@H]3C(=O)N3CCCC[C@H]3C(=O)N[C@@H](C)C(=O)N3C[C@H](C)C[C@H]3C(=O)O[C@H]2C)c1 [Compound 78, (S)-2-(3-(2,4-DICHLOROPHENYL)UREIDO)-N-((2R,6S,8AS,14AS,16R,20S,21S,23AS)-16-HYDROXY-2,6,21-TRIMETHYL-5,8,14,19,23-PENTAOXOOCTADECAHYDRO-1H,5H,14H,19H-PYRIDO[2,1-I]DIPYRROLO[2,1-C:2′,1′-L][1]OXA[4,7,10,13]TETRAAZACYCLOHEXADECIN-20-YL)-3-(M-TOLYL)PROPANAMIDE] ({X7-CO}-[Phe(3-Me)][aThr][Hyp][Pip]A[Pro(4R-Me)]; ester 2-C)
EC50 (S. aureus ClpP (Sa-ClpP)): 330 ± 100 nM

Cc1cccc(C[C@H](NC(=O)Nc2ccc(F)cc2)C(=O)N[C@@H]2C(=O)N3C[C@H](O)C[C@H]3C(=O)N3CCCC[C@H]3C(=O)N[C@@H](C)C(=O)N3C[C@H](C)C[C@H]3C(=O)O[C@H]2C)c1 [Compound 79, (S)-2-(3-(4-FLUOROPHENYL)UREIDO)-N-((2R,6S,8AS,14AS,16R,20S,21S,23AS)-16-HYDROXY-2,6,21-TRIMETHYL-5,8,14,19,23-PENTAOXOOCTADECAHYDRO-1H,5H,14H,19H-PYRIDO[2,1-I]DIPYRROLO[2,1-C:2′,1′-L][1]OXA[4,7,10,13]TETRAAZACYCLOHEXADECIN-20-YL)-3-(M-TOLYL)PROPANAMIDE] ({NH(4-F-phenyl)-CO}-[Phe(3-Me)][aThr][Hyp][Pip]A[Pro(4R-Me)]; ester 2-C)
EC50 (S. aureus ClpP (Sa-ClpP)): 900 ± 600 nM

Cc1cccc(C[C@H](NC(=O)Nc2ccccc2F)C(=O)N[C@@H]2C(=O)N3C[C@H](O)C[C@H]3C(=O)N3CCCC[C@H]3C(=O)N[C@@H](C)C(=O)N3C[C@H](C)C[C@H]3C(=O)O[C@H]2C)c1 [Compound 80, (S)-2-(3-(2-FLUOROPHENYL)UREIDO)-N-((2R,6S,8AS,14AS,16R,20S,21S,23AS)-16-HYDROXY-2,6,21-TRIMETHYL-5,8,14,19,23-PENTAOXOOCTADECAHYDRO-1H,5H,14H,19H-PYRIDO[2,1-I]DIPYRROLO[2,1-C:2′,1′-L][1]OXA[4,7,10,13]TETRAAZACYCLOHEXADECIN-20-YL)-3-(M-TOLYL)PROPANAMIDE] ({NH(2-F-phenyl)-CO}-[Phe(3-Me)][aThr][Hyp][Pip]A[Pro(4R-Me)]; ester 2-C)
EC50 (S. aureus ClpP (Sa-ClpP)): 590 ± 400 nM
